Patent US20260248809A1, “ESTRADIOL PRODRUGS AND METHODS OF USE THEREOF” (UNIVERSITY OF MARYLAND, BALTIMORE, priority 2022, published 2026)
Entries after “also recorded” stand apart in the source; their conditions may differ.

Tests used:
[1] = Pharmacokinetic assessment of the DHED-acetate prodrug, IV and PO; assay type: in vivo, mouse
Method: FIGS. 29A-29B illustrate the pharmacokinetic assessment of the DHED-acetate prodrug. The concentration levels of the DHED-acetate prodrug (FIG. 29A) and DHED (FIG. 29B) were measured in mice (n=3) after IV and PO administration of 5 mg/kg solution dose of DHED-acetate prodrug.
Pharmacokinetic (PK) assessment of prodrugs. […] Generally, this PK study and analysis proceeds similarly to previous studies aimed at assessing the oral bioavailability of (2R,6R)-HNK. As in previous data with DHED (FIGS. 6A-6B), male C57BL/6J mice (n=6/time point) receive 200 μg of prodrug in 0.9% (20% cyclodextrin) administered either IV or PO. Plasma and brain are collected at 5 min, 15 min, 30 min, 1 h, and 4 h after administration. PK is performed using tandem liquid chromatography-mass spectrometry (LC-MS/MS) for quantification. Pharmacokinetic analysis is performed using Phoenix WinNonLin. Non-compartmental analysis is performed to determine the following parameters: C0 (Back-extrapolated concentration at time 0); Cmax (Maximum observed concentration); Tmax (time of maximum observed concentration); AUC0-t (Area under the concentration-time curve from hour 0 to the last measurable concentration, estimated by the linear trapezoidal rule). Statistical significance is calculated using the unpaired t-test or Mann-Whitney U test for comparing AUC values. Importantly, pharmacokinetic measurements observe both the level of the prodrug and free DHED moiety in the plasma. A critical comparison is measuring the DHED levels after administration of the prodrug compared to after administration of DHED itself. […] E2 levels are measured with liquid chromatography tandem mass spectrometry (LC-MS/MS) using standard methods. […] If levels of E2 are too low to be quantified via this measure, and to distinguish naturally-produced from DHED prodrug-produced E2, E2 levels can be quantitated at the femtomole level utilizing deuterium-labelled E2 standards and triple quadrupole mass spectrometry.

[2] = in vivo; cited from earlier work
[3] = test system: optically-induced postsynaptic currents (oPSC) in the NAc; assay: Whole-cell patch clamp of optically-induced postsynaptic currents in NAc slices; design: species or system mouse; settings: bath applied NBQX and APV together
Method: Mice (n=3 males) that were previously injected with ChR2 in the BLA were deeply anesthetized with isoflurane before decapitation and brain extraction. Coronal 250 μm thick sections were collected in ice cold 95% oxygen, 5% carbon dioxide-bubbled modified artificial cerebrospinal fluid (aCSF, 194 mM sucrose, 30 mM NaCl, 4.5 mM KCl, 1 mM MgCl2, 26 mM NaHCO3, 1.2 mM NaH2PO4, and 10 mM D-glucose) before incubating at 32° C. for 30 min in aCSF (124 mM NaCl, 4.5 mM KCl, 2 mM CaCl2), 1 mM MgCl2, 26 mM NaHCO3, 1.2 mM NaH2PO4, and 10 mM D-glucose). Slices were then stored at room temperature until recording.
Slices were hemisected, placed into a recording chamber, and perfused with temperature controlled aCSF (29-31° C.). NAc medium spiny neurons (MSNs) were visualized using infrared differential interference contrast light microscopy, Q-capture camera, and associated Pro 7 software. […] Optically evoked post synaptic currents (oPSC) were elicited by an optical fiber placed in the recording chamber that delivered 4 ms pulses of light (473 nm) every 20s for a total recording duration of 15 min. oPSCs were recorded using borosilicate glass pipettes (2-4 MΩ resistance) filled with Cesium Methanesulfonate internal solution (135 mM cesium methanesulfonate, 3 mM NaCl, 10 mM HEPES, 0.6 mM EGTA, 4 mM MgATP, 0.3 mM NaGTP, 5 mM QX-314C1, pH 7.2, 310 mOsm). […]

male mice [4] = assay: Subthreshold social defeat stress (SSDS) followed by social interaction test; assay type: in vivo, mouse
Method: (§1) Subthreshold social defeat stress: Retired CD1 breeders are singly housed and used as aggressors. Experimental mice are introduced to the home cage of an aggressor for 2 min to initiate the physical attack phase. Afterward, mice are transferred and housed on the opposite side of the aggressor, in the same cage separated by a perforated Plexiglass divider for 15 mins in order to maintain sensory contact. This process is repeated 3 times over a period of ~50 min.
(§2) Social Interaction: Mice are placed in a rectangular box (40 cm length×30 cm width×35 cm height; Stoelting, IL) divided into three compartments (two equal-sized end-chambers and a middle chamber) for five minute habituation phase (10-15 lux). After the habituation phase, two small wire cages are introduced into the two end chambers, one containing an unfamiliar, non-aggressive CD1 mouse and the other remaining empty. The amount of time mice spent sniffing each cage during the five-min test is assessed using CleverSys tracking software (CleverSys, Inc, Reston VA, USA).
(§3) For the chronic administration paradigms, silastic tubes (1.02 mm inner diameter×2.16 mm outer diameter) were filled with testosterone (10 mm) or 17β-Estradiol (E2; 1,3 and 10 mm; Sigma-Aldrich, St. Louis, MO, USA). Silastic implants were primed in 0.9% saline at 37° C. overnight prior to their subcutaneous use. Letrozole (1 mg/kg/day; Sigma-Aldrich, St. Louis, MO, USA) was dissolved in propylene glycol (MP Biomedicals, Santa Ana, CA, USA) and administered through ALZET minipumps (Model 1002, 0.25 μl/hour, 14 days; Cupertino, CA, USA). DHED (synthesized using previously described methods) was dissolved in 0.9% saline and administered through ALZET minipumps (Model 1002, 0.25 μl/hour, 14 days; Cupertino, CA, USA) at a dose of […]. Flutamide was administered through 1.5 mg slow-release subcutaneous pellets (Innovative Research of America, Sarasota, FL, USA). For acute administration, 17β-Estradiol (E2; 10 and […]) was dissolved in sesame oil (4 ml/kg, s.c.; Sigma-Aldrich, St. Louis, MO, USA).
(§4) Retired CD1 breeders were singly housed and used as aggressors. Two days prior to the start of the experiment, experimental mice were also singly housed. The stress procedure was performed using previously described methods. Briefly, experimental mice were introduced to the home cage of an aggressor for 2 min to initiate the physical attack phase. Afterward, mice were transferred and housed on the opposite side of the aggressor, in the same cage separated by a perforated Plexiglass divider for 15 mins in order to maintain sensory contact. This process was repeated 3 times over a period of ~50 min. Following the completion of the third cycle, mice were placed back in their home cages.
(§5) Acute E2 was administered 45 min prior to the initiation of stress or 5 min after the completion of stress. For the optogenetic stimulation, ChR2 and YFP-injected mice received a 4 Hz, 5 ms pulse width, 10-15 mW 470 nm light stimulation for 45 min prior to the initiation of stress. This stimulation paradigm was shown previously to increase synaptic transmission. The optogenetic set up consisted of an LED driver paired with a fiber-coupled LED light source attached to a bifurcated optogenetic path cable (400 μm, 0.49 NA; ThorLabs, Newton NJ, USA).
as §2, with “Social interaction was performed 24 hours following subthreshold social defeat or inescapable foot-shock stress. For the habituation phase, mice were” for “Social Interaction: Mice are”, “five minutes” for “five minute habituation phase”, “cages were” for “cages are”, “test was” for “test is”

male mice [5] = assay: Subthreshold social defeat stress followed by female urine sniffing test (anhedonia); assay type: in vivo, mouse
Method: as §1
(§6) Female Urine Preference Test: is performed 24 hours after the social interaction test as using previously described methods. The amount of time mice spent interacting with a cotton-tipped applicator soaked in either fresh male or female mouse urine during a total of 3 minutes is analyzed by an experimenter blind to the experimental groups.
as §3, §4, §5
as §6, with “FUST procedure was” for “Female Urine Preference Test: is”, “and 48 hours after stress. FUST was performed” for “as”, “was” for “is”

[6] = Body, testis and seminal vesicle weights after hormonal treatments; assay type: in vivo, mouse
Method: as §3
Subcutaneous implantations were performed during the same time as the orchiectomies. The surgical area was thoroughly cleaned with Betadine solution (10% povidone-iodine surgical scrub) followed by 70% ethanol. A small, approximately 1-cm incision was made between the scapulae using a pair of small sterile surgical scissors. Hemostats were then inserted and spread laterally to the incision to create a cavity in the subcutaneous space in which ALZET mini-osmotic pumps or silastic implants were inserted for continuous drug/vehicle delivery. The skin was closed with suturing.

in vivo = settings: male, C57BL/6J, mouse
From the text: Although these findings support a critical role for E2, and not testosterone itself, as the biologically active hormone mediating stress susceptibility in hypogonadal male mice, E2 replacement therapy cannot be considered as a viable treatment in human male veteran populations due to its peripheral side effects, including gynecomastia and erectile dysfunction. However, isolating the effects of E2 to the central nervous system would provide a viable therapy. […] As a next step in advancing this treatment, the oral bioavailability of DHED was assessed, comparing oral versus intravenous delivery routes.
Pharmacokinetic (PK) assessment of prodrugs. […] Generally, this PK study and analysis proceeds similarly to previous studies aimed at assessing the oral bioavailability of (2R,6R)-HNK. […] PK is performed using tandem liquid chromatography-mass spectrometry (LC-MS/MS) for quantification. […] Statistical significance is calculated using the unpaired t-test or Mann-Whitney U test for comparing AUC values. […] E2 levels are measured with liquid chromatography tandem mass spectrometry (LC-MS/MS) using standard methods. […] If levels of E2 are too low to be quantified via this measure, and to distinguish naturally-produced from DHED prodrug-produced E2, E2 levels can be quantitated at the femtomole level utilizing deuterium-labelled E2 standards and triple quadrupole mass spectrometry.

[7] = test system: estrogen or other hormone receptors; settings: cited from earlier work
rodents = settings: high doses administered orally to rodents; cited from earlier work
[8] = test system: progesterone receptor (PR) expression; settings: rat, in vivo; cited from earlier work
galanin expression = settings: rat, in vivo; cited from earlier work
C3 expression = settings: rat, in vivo; cited from earlier work
[9] = chronic treatment (silastic implant or minipump), orchiectomized male mice + SSDS
[10] = chronic treatment, gonadally intact male mice + SSDS

## CC(=O)O[C@H]1CC[C@H]2[C@@H]3CCC4=CC(=O)C=C[C@]4(O)[C@H]3CC[C@]12C [Example 1.1, (8S,9S,10S,13S,14S,17S)-10-hydroxy-13-methyl-3-oxo-6,7,8,9,10,11,12,13,14,15,16,17-dodecahydro-3H-cyclopenta[a]phenanthren-17-yl acetate]
[1]; mice (n=3), 5 mg/kg solution dose, IV
  concentration level of the prodrug after IV administration: very rapidly metabolized
[1]; mice (n=3), 5 mg/kg solution dose, PO
  concentration level of the prodrug after PO administration: cannot be detected
[1]; mice, 5 mg/kg, IV or PO
  conversion of the prodrug into DHED: hydrolyzed into DHED

## C[C@]12CC[C@H]3[C@@H](CCC4=CC(=O)CC[C@@]43C)[C@@H]1CC[C@@H]2OC(=O)[C@@H]1CCCN1C(=O)c1ccc(S(N)(=O)=O)cn1 [EC586]
[2]
  oral bioavailability of testosterone: substantially enhance the oral bioavailability

## N[C@@H](CCCP(=O)(O)O)C(=O)O [APV]
[3]
  oPSCs in NAc of ERβ-cre mice with ChR2 in the BLA: blocked

## C[C@]12CC[C@H]3[C@@H](CCC4=CC(=O)C=C[C@@]43O)[C@@H]1CC[C@@H]2O [DHED, 10β,17β-dihydroxyestra-1,4-dien-3-one]
Male mice [4]; [9]
  stress-induced social interaction deficits: reversed the social interaction and hedonic deficits
Male mice [5]; [9]
  stress-induced anhedonia: reversed the social interaction and hedonic deficits
[6]; chronic treatment
  body weight: did not increase; also recorded: no difference
  seminal vesicle weight: did not increase; also recorded: no difference
[6]; s.c. treatment, compared to vehicle (saline) control
  relative seminal vesicle weights: unaffected
In vivo; oral bioavailability measured in brain
  bioavailability: < 2%
In vivo; oral bioavailability measured in plasma
  bioavailability: 10%
[7]
  effects on estrogen or other hormone receptors throughout the body: no effects on estrogen or other hormone receptors
rodents
  efficacy in models of hot flushes: E2-like efficacy
[8]
  medial preoptic area PR expression: increases medial preoptic area PR expression
Galanin expression
  pituitary galanin expression: does not change
C3 expression
  uterus C3 expression: does not change

## N#Cc1ccc(C(c2ccc(C#N)cc2)n2cncn2)cc1 [letrozole, Letrozole]
Male mice [4]; [10]
  social interaction deficits following stress: deficits in social interaction
Male mice [5]; [10]
  anhedonia following stress: induced a stress-susceptible phenotype
[6]; chronic treatment
  body weight: increased body weight
  seminal vesicle weight: increased seminal vesicle weight
  testis weight: no difference in testes weight

## NS(=O)(=O)c1cccc2c1c([N+](=O)[O-])cc1nc(O)c(O)nc12 [NBQX]
[3]
  oPSCs in NAc of ERβ-cre mice with ChR2 in the BLA: blocked

## CCCCCCCCCC(=O)O[C@H]1CC[C@H]2[C@@H]3CCC4=CC(=O)CC[C@]4(C)[C@H]3CC[C@]12C [Testosterone-decanoate]
[2]
  oral bioavailability of testosterone: substantially enhance the oral bioavailability
